# Assay results as given in PubChem BioAssay (NCI).
# Where “and” joins values, the source holds several entries; their conditions need not be identical. Equal values may be shown once.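 Tested at 5 concentrations; 48 h exposure; 96-well plates; endpoints linearly interpolated, else capped at highest concentration. Here, GI50 denotes the concentration required for 50% inhibition of growth. TGI marks complete inhibition of growth.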
# Assays:
# Assay in all cases: NCI tumour cell line growth inhibition, 48 h
# 786-0 renal = system: 786-0 renal
# PC-3 prostate = system: PC-3 prostate
# MDA-MB-435 = system: MDA-MB-435
# HCC-2998 colon = system: HCC-2998 colon
# MDA-MB-231 breast = system: MDA-MB-231 breast
# HS 578T breast = system: HS 578T breast
# SR leukemia = system: SR leukemia
# M19-MEL melanoma = system: M19-MEL melanoma
# HOP-18 NSCLC = system: HOP-18 NSCLC
# SN12K1 renal = system: SN12K1 renal
# P388/ADR leukemia = system: P388/ADR leukemia
# P388 leukemia = system: P388 leukemia
# DMS 273 small cell lung = system: DMS 273 small cell lung
# LXFL 529 NSCLC = system: LXFL 529 NSCLC
# RXF-631 renal = system: RXF-631 renal
structure (smiles),measurement,setting,value
C/C(=N\NC(=S)N1CCN(C)CC1)c1nc2ncccc2[nH]1,TGI,786-0 renal,> 100 µM
same,TGI,PC-3 prostate,> 100 µM
same,TGI,MDA-MB-435,> 100 µM
same,TGI,HCC-2998 colon,> 100 µM
same,TGI,MDA-MB-231 breast,> 100 µM
same,TGI,HS 578T breast,> 100 µM
CN(Cc1cccc2ccccc12)Cc1cccc2ccccc12,TGI,786-0 renal,> 100 µM
same,TGI,PC-3 prostate,57.7 µM
same,TGI,MDA-MB-435,> 100 µM
same,TGI,HCC-2998 colon,57.9 µM
same,TGI,MDA-MB-231 breast,64.1 µM
same,TGI,HS 578T breast,> 100 µM
same,TGI,SR leukemia,90.8 µM
O=C(O)NCC1CCCCC1 (tested in a mixture with another compound),TGI,786-0 renal,77.3 µM
same,TGI,PC-3 prostate,46.4 µM
same,TGI,MDA-MB-435,58.1 µM
same,TGI,MDA-MB-231 breast,44.9 µM
same,TGI,SR leukemia,72 µM
N=[N+]=CC(=O)CCC(NC(=O)C(CCC(=O)C=[N+]=N)NC(=O)CCC(N)C(=O)O)C(=O)O (configuration not stated),TGI,M19-MEL melanoma,> 100 µM
same,TGI,HOP-18 NSCLC,> 100 µM
same,TGI,SN12K1 renal,> 100 µM
same,TGI,P388/ADR leukemia,> 100 µM
same,TGI,P388 leukemia,> 100 µM
same,TGI,HCC-2998 colon,> 100 µM
same,TGI,DMS 273 small cell lung,> 100 µM
C[n+]1c2ccccc2c(NC(CS)C(=O)O)c2ccccc21 (configuration not stated),TGI,M19-MEL melanoma,> 100 µM
same,TGI,786-0 renal,> 100 µM
same,TGI,LXFL 529 NSCLC,> 100 µM
same,TGI,HOP-18 NSCLC,> 100 µM
same,TGI,RXF-631 renal,> 100 µM
same,TGI,HCC-2998 colon,> 100 µM
same,TGI,SR leukemia,39.4 µM
same,TGI,DMS 273 small cell lung,89.9 µM
CC(C)(C)C(=O)CP(=O)(O)O,TGI,786-0 renal,> 100 µM
same,TGI,PC-3 prostate,> 100 µM
same,TGI,MDA-MB-435,> 100 µM
same,TGI,MDA-MB-231 breast,> 100 µM
same,TGI,HS 578T breast,> 100 µM
same,TGI,SR leukemia,> 100 µM
C/C=C(\C)C(=O)OC1C(C)=C2C(C1OC(=O)CCCC)C(C)(OC(C)=O)CC(OC(=O)CCCC)C1(O)C2OC(=O)C1(C)O (configuration not stated),TGI,786-0 renal,> 60.1 µM
same,TGI,PC-3 prostate,> 37.5 µM
same,TGI,MDA-MB-435,> 100 µM
same,TGI,HCC-2998 colon,> 100 µM
same,TGI,MDA-MB-231 breast,5.87 µM
same,TGI,HS 578T breast,> 100 µM
same,TGI,SR leukemia,> 81 µM
C[n+]1ccc(Nc2ccc(NC(=O)c3ccc(Nc4cc[n+](C)c5ccc([N+](=O)[O-])cc45)cc3[N+](=O)[O-])cc2)cc1,TGI,M19-MEL melanoma,68 µM and 61 µM
same,TGI,786-0 renal,77.4 µM
same,TGI,LXFL 529 NSCLC,50.8 µM
same,TGI,HOP-18 NSCLC,50.4 µM and 59.5 µM
same,TGI,SN12K1 renal,> 100 µM
same,GI50,P388/ADR leukemia,32.9 µM and 12 µM
same,TGI,P388/ADR leukemia,> 54.2 µM and 17.2 µM
same,TGI,P388 leukemia,> 35.1 µM
same,TGI,HCC-2998 colon,> 100 µM
same,TGI,SR leukemia,> 100 µM
same,TGI,DMS 273 small cell lung,> 100 µM
Nc1c(C(=O)Nc2ccc(C3=NCCN3)cc2)cccc1C(=O)Nc1ccc(C2=NCCN2)cc1,TGI,M19-MEL melanoma,> 100 µM
same,TGI,HOP-18 NSCLC,> 100 µM
same,TGI,SN12K1 renal,> 100 µM
same,TGI,P388/ADR leukemia,> 100 µM
same,TGI,P388 leukemia,> 100 µM
same,TGI,HCC-2998 colon,> 100 µM
same,TGI,DMS 273 small cell lung,> 100 µM
Nc1ccc(S(=O)(=O)Nc2ccc(Nc3c4ccccc4nc4ccccc34)cc2)cc1,TGI,M19-MEL melanoma,21.1 µM
same,TGI,786-0 renal,0.352 µM
same,TGI,PC-3 prostate,17.4 µM
same,TGI,LXFL 529 NSCLC,20.6 µM
same,TGI,HOP-18 NSCLC,16.1 µM
same,TGI,MDA-MB-435,53 µM
same,TGI,RXF-631 renal,10.8 µM
same,TGI,HCC-2998 colon,8.2 µM
same,TGI,MDA-MB-231 breast,22.1 µM
same,TGI,HS 578T breast,54.7 µM
same,TGI,SR leukemia,0.533 µM
same,TGI,DMS 273 small cell lung,3.08 µM
Cc1c(Cl)c(S(N)(=O)=O)cc2c1NC=NS2(=O)=O,TGI,786-0 renal,> 100 µM
same,TGI,PC-3 prostate,> 100 µM
same,TGI,MDA-MB-435,> 100 µM
same,TGI,HCC-2998 colon,> 100 µM
same,TGI,MDA-MB-231 breast,> 100 µM
same,TGI,HS 578T breast,> 100 µM
Cc1cc2sc(C)[n+](CCCOS(=O)(=O)[O-])c2cc1C,TGI,786-0 renal,> 100 µM
same,TGI,PC-3 prostate,> 100 µM
same,TGI,MDA-MB-435,> 100 µM
same,TGI,MDA-MB-231 breast,> 100 µM
same,TGI,HS 578T breast,> 100 µM
same,TGI,SR leukemia,> 100 µM
COC(=O)c1cc2cc3c(c(O)c2c(=O)o1)O[C@@]1(Oc2c(O)c4c(c(O)c2[C@H]1OC1CC(OC)C(O)C(C)O1)C(=O)C=C(OC)C4=O)[C@H](O)C3 (some centres not stated),TGI,PC-3 prostate,12.2 µM
same,TGI,MDA-MB-435,7.47 µM
same,TGI,MDA-MB-231 breast,5.95 µM
same,TGI,SR leukemia,4.76 µM
O=C(NC1C=Nc2ccc([N+](=O)[O-])cc2NC1=O)c1cc(Cl)cc([N+](=O)[O-])c1 (configuration not stated),TGI,M19-MEL melanoma,> 100 µM
same,TGI,LXFL 529 NSCLC,> 100 µM
same,TGI,HCC-2998 colon,> 100 µM
same,TGI,SR leukemia,> 100 µM
same,TGI,DMS 273 small cell lung,> 100 µM
Cc1ccc(N=Nc2ccc(N)cc2C)c(S(N)(=O)=O)c1,TGI,786-0 renal,> 100 µM
same,TGI,PC-3 prostate,> 100 µM
same,TGI,MDA-MB-231 breast,> 100 µM
same,TGI,HS 578T breast,> 100 µM
same,TGI,SR leukemia,> 100 µM
